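48-hour exposure; five concentrations; linearly interpolated endpoints. TGI: total growth inhibition.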
What was measured:
Test in all cases: NCI anticancer screen, dose series, 48 h
786-0 renal = test system: 786-0 renal
T-47D breast = test system: T-47D breast
A549 NSCLC = test system: A549 NSCLC
SK-OV-3 ovarian = test system: SK-OV-3 ovarian
OVCAR-5 ovarian = test system: OVCAR-5 ovarian
RXF 393 renal = test system: RXF 393 renal
KM12 colon = test system: KM12 colon
CAKI-1 renal = test system: CAKI-1 renal
A498 renal = test system: A498 renal
IGROV1 ovarian = test system: IGROV1 ovarian
NCI-H226 lung = test system: NCI-H226 lung
HT29 colon = test system: HT29 colon
DU-145 prostate = test system: DU-145 prostate
TK-10 renal = test system: TK-10 renal
HCT-15 colon = test system: HCT-15 colon
SNB-19 CNS = test system: SNB-19 CNS
HCC-2998 colon = test system: HCC-2998 colon
ACHN renal = test system: ACHN renal
K-562 leukemia = test system: K-562 leukemia
UACC-62 melanoma = test system: UACC-62 melanoma
LOX IMVI melanoma = test system: LOX IMVI melanoma
NCI/ADR-RES ovarian = test system: NCI/ADR-RES ovarian
SN12C renal = test system: SN12C renal
MOLT-4 leukemia = test system: MOLT-4 leukemia
MDA-MB-435 = test system: MDA-MB-435
UO-31 renal = test system: UO-31 renal
HS 578T breast = test system: HS 578T breast
SF-539 CNS = test system: SF-539 CNS
HOP-92 NSCLC = test system: HOP-92 NSCLC
NCI-H460 lung = test system: NCI-H460 lung
SR leukemia = test system: SR leukemia
OVCAR-8 ovarian = test system: OVCAR-8 ovarian
SK-MEL-5 melanoma = test system: SK-MEL-5 melanoma
UACC-257 melanoma = test system: UACC-257 melanoma
MDA-N = test system: MDA-N
MCF7 breast = test system: MCF7 breast
OVCAR-4 ovarian = test system: OVCAR-4 ovarian
HOP-62 NSCLC = test system: HOP-62 NSCLC
SK-MEL-2 melanoma = test system: SK-MEL-2 melanoma
RPMI-8226 leukemia = test system: RPMI-8226 leukemia
EKVX NSCLC = test system: EKVX NSCLC
SF-295 CNS = test system: SF-295 CNS
COLO 205 colon = test system: COLO 205 colon
CCRF-CEM leukemia = test system: CCRF-CEM leukemia
NCI-H522 lung = test system: NCI-H522 lung
NCI-H23 lung = test system: NCI-H23 lung
PC-3 prostate = test system: PC-3 prostate
SK-MEL-28 melanoma = test system: SK-MEL-28 melanoma
SF-268 CNS = test system: SF-268 CNS
MDA-MB-231 breast = test system: MDA-MB-231 breast
OVCAR-3 ovarian = test system: OVCAR-3 ovarian
U251 CNS = test system: U251 CNS
MALME-3M melanoma = test system: MALME-3M melanoma
HL-60(TB) leukemia = test system: HL-60(TB) leukemia
SNB-75 CNS = test system: SNB-75 CNS
SW-620 colon = test system: SW-620 colon
HCT-116 colon = test system: HCT-116 colon
M14 melanoma = test system: M14 melanoma

COc1ccc2cc(CN3CCC(C4CCN(Cc5ccc6cc(OC)ccc6c5)CC4)CC3)ccc2c1 gave a TGI (786-0 renal) of 4.23 µM, a TGI (T-47D breast) of 4.45 µM and a TGI (A549 NSCLC) of over 100 µM. It also gave a TGI (SK-OV-3 ovarian) of over 72.8 µM, a TGI (OVCAR-5 ovarian) of over 76.7 µM and a TGI (RXF 393 renal) of 11.8 µM. The TGI (KM12 colon) was 6.31 µM, the TGI (CAKI-1 renal) was 8.42 µM and the TGI (A498 renal) was 22.2 µM. For the same compound, the TGI (IGROV1 ovarian) was 21.6 µM, the TGI (NCI-H226 lung) was 38.3 µM and the TGI (HT29 colon) was 6.64 µM. It also gave a TGI (DU-145 prostate) of 41.6 µM, a TGI (TK-10 renal) of 6.18 µM and a TGI (HCT-15 colon) of 3.04 µM. For the same compound, the TGI (SNB-19 CNS) was 16.6 µM, the TGI (HCC-2998 colon) was 0.367 µM and the TGI (ACHN renal) was 21.7 µM. The TGI (K-562 leukemia) was 2.12 µM, the TGI (UACC-62 melanoma) was 3.74 µM and the TGI (LOX IMVI melanoma) was 5.66 µM. For the same compound, the TGI (NCI/ADR-RES ovarian) was 25.9 µM, the TGI (SN12C renal) was 24 µM and the TGI (MOLT-4 leukemia) was 5.11 µM. For the same compound, the TGI (MDA-MB-435) was 3.58 µM, the TGI (UO-31 renal) was 9.78 µM and the TGI (HS 578T breast) was 11.8 µM. For the same compound, the TGI (SF-539 CNS) was over 100 µM, the TGI (HOP-92 NSCLC) was 8.91 µM and the TGI (NCI-H460 lung) was 5.04 µM. It also gave a TGI (SR leukemia) of 3.6 µM, a TGI (OVCAR-8 ovarian) of 19.4 µM and a TGI (SK-MEL-5 melanoma) of 3.12 µM. It also gave a TGI (UACC-257 melanoma) of 3.88 µM, a TGI (MDA-N) of 4.06 µM and a TGI (MCF7 breast) of over 100 µM. The TGI (OVCAR-4 ovarian) was 18.2 µM, the TGI (HOP-62 NSCLC) was 22.7 µM and the TGI (SK-MEL-2 melanoma) was 12.7 µM. For the same compound, the TGI (RPMI-8226 leukemia) was 4.19 µM, the TGI (EKVX NSCLC) was 29.8 µM and the TGI (SF-295 CNS) was 7.57 µM. For the same compound, the TGI (COLO 205 colon) was 2.98 µM, the TGI (CCRF-CEM leukemia) was 4.33 µM and the TGI (NCI-H522 lung) was 6.56 µM. For the same compound, the TGI (NCI-H23 lung) was 35.9 µM, the TGI (PC-3 prostate) was 48.7 µM and the TGI (SK-MEL-28 melanoma) was 4.75 µM. The TGI (SF-268 CNS) was 10.8 µM, the TGI (MDA-MB-231 breast) was 9.97 µM and the TGI (OVCAR-3 ovarian) was 9.74 µM. The TGI (U251 CNS) was 8.41 µM, the TGI (MALME-3M melanoma) was 4.51 µM and the TGI (HL-60(TB) leukemia) was 4.31 µM. It also gave a TGI (SNB-75 CNS) of 11 µM, a TGI (SW-620 colon) of 7.98 µM and a TGI (HCT-116 colon) of 10.6 µM.
Work on COc1ccc(/C=C2\Sc3nnc(-c4ccccc4)n3N=C2c2cc(F)c(Cl)cc2Cl)cc1OC yielded a TGI (786-0 renal) of over 100 µM, a TGI (T-47D breast) of over 100 µM and a TGI (SK-OV-3 ovarian) of over 100 µM. For the same compound, the TGI (OVCAR-5 ovarian) was over 100 µM, the TGI (RXF 393 renal) was 54.4 µM and the TGI (KM12 colon) was over 100 µM. For the same compound, the TGI (CAKI-1 renal) was over 100 µM, the TGI (A498 renal) was over 100 µM and the TGI (IGROV1 ovarian) was over 100 µM. For the same compound, the TGI (NCI-H226 lung) was over 100 µM, the TGI (HT29 colon) was over 100 µM and the TGI (DU-145 prostate) was over 100 µM. The TGI (TK-10 renal) was over 100 µM, the TGI (HCT-15 colon) was over 100 µM and the TGI (HCC-2998 colon) was 47.2 µM. It also gave a TGI (ACHN renal) of over 100 µM, a TGI (M14 melanoma) of over 100 µM and a TGI (K-562 leukemia) of over 100 µM. It also gave a TGI (LOX IMVI melanoma) of over 100 µM, a TGI (NCI/ADR-RES ovarian) of over 100 µM and a TGI (MOLT-4 leukemia) of 68.9 µM. The TGI (MDA-MB-435) was over 100 µM, the TGI (UO-31 renal) was over 100 µM and the TGI (HS 578T breast) was over 100 µM. The TGI (SF-539 CNS) was over 100 µM, the TGI (HOP-92 NSCLC) was over 100 µM and the TGI (NCI-H460 lung) was over 100 µM. For the same compound, the TGI (SR leukemia) was over 100 µM, the TGI (OVCAR-8 ovarian) was over 100 µM and the TGI (SK-MEL-5 melanoma) was over 100 µM. For the same compound, the TGI (UACC-257 melanoma) was over 100 µM, the TGI (MDA-N) was over 100 µM and the TGI (MCF7 breast) was over 100 µM. For the same compound, the TGI (OVCAR-4 ovarian) was over 100 µM, the TGI (HOP-62 NSCLC) was over 100 µM and the TGI (SK-MEL-2 melanoma) was over 100 µM. It also gave a TGI (RPMI-8226 leukemia) of over 100 µM, a TGI (EKVX NSCLC) of over 100 µM and a TGI (SF-295 CNS) of over 100 µM. It also gave a TGI (CCRF-CEM leukemia) of over 100 µM, a TGI (NCI-H522 lung) of 38.3 µM and a TGI (NCI-H23 lung) of over 100 µM. For the same compound, the TGI (PC-3 prostate) was over 100 µM, the TGI (SK-MEL-28 melanoma) was over 100 µM and the TGI (SF-268 CNS) was over 100 µM. The TGI (MDA-MB-231 breast) was over 100 µM, the TGI (OVCAR-3 ovarian) was over 100 µM and the TGI (U251 CNS) was over 100 µM. For the same compound, the TGI (HL-60(TB) leukemia) was over 100 µM, the TGI (SW-620 colon) was 92 µM and the TGI (HCT-116 colon) was over 100 µM.

Source: PubChem BioAssay (NCI)
